Patent US11149018B2, “Substituted N-arylethyl-2-aminoquinoline-4-carboxamides and use thereof” (Bayer Aktiengesellschaft, priority 2017, dated 2021)

Target: FP receptor (Homo sapiens (Human), UniProt P43088)
Test: In vitro test of inhibition of human FP receptor activity (PGF2α-induced calcium flux in FP-expressing CHEM1 cells)
Assay type: cell-based
Settings: PGF2α 2 nM, some mean values of multiple determinations
Description: B-1. In Vitro Test of Inhibition of Human FP Receptor Activity
For the characterization of test substances in respect of FP antagonism, PGF2α-induced calcium flux in FP-expressing CHEM1 cells (Millipore, HTS093C) was used.
10 μl of the prediluted substance solution are added to the Fluo-8-laden cells and incubated at 37° C., 5% CO2 for 10 minutes. The FP receptor is activated by adding 40 μl of 2 nM (final concentration) PGF2α in calcium-free Tyrode, 2 mM CaCl2, 0.002% SmartBlock, and the calcium flux is determined by measuring the fluorescence at ex. 470 nm/[…].
Table 1 below lists the IC50 values from this assay for individual working examples of the invention (some as mean values from multiple independent individual determinations): […]

Sequence of FP receptor (P43088 whole entry): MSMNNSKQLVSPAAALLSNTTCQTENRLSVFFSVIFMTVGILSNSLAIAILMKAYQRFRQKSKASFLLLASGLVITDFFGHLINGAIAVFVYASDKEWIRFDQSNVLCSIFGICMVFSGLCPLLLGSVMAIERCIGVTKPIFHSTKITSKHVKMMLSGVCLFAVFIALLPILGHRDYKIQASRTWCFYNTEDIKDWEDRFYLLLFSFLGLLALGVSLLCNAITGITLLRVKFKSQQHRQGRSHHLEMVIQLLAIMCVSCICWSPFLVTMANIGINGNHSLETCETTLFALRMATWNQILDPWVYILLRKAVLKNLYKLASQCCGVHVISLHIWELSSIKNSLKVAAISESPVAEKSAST

IC50 [nM]	SMILES
1.7	Cc1c(N2CCCCC2)nc2ccc(Br)cc2c1C(=O)NCC(CCC(=O)O)c1ccccc1OC(F)(F)F (racemic) [Example 126, (+/−)-5-({[6-Bromo-3-methyl-2-(piperidin-1-yl)quinolin-4-yl]carbonyl}amino)-4-[2-(trifluoromethoxy)phenyl]pentanoic acid]
6.1	Cc1c(N2CCCC2)nc2ccc(Br)cc2c1C(=O)NCC(CCC(=O)O)c1ccccc1OC(F)(F)F (racemic) [Example 129, (+/−)-5-({[6-Bromo-3-methyl-2-(pyrrolidin-1-yl)quinolin-4-yl]carbonyl}amino)-4-[2-(trifluoromethoxy)phenyl]pentanoic acid]
3	Cc1c(N2CCCCCC2)nc2ccc(Br)cc2c1C(=O)NCC(CCC(=O)O)c1ccccc1OC(F)(F)F (racemic) [Example 135, (+/−)-5-({[2-(Azepan-1-yl)-6-bromo-3-methylquinolin-4-yl]carbonyl}amino)-4-[2-(trifluoromethoxy)phenyl]pentanoic acid]
5.8	Cc1c(N2CCCCC2)nc2ccc(Br)cc2c1C(=O)NCC(CCC(=O)O)c1cccc(F)c1Cl (racemic) [Example 141, (+/−)-5-({[6-Bromo-3-methyl-2-(piperidin-1-yl)quinolin-4-yl]carbonyl}amino)-4-(2-chloro-3-fluorophenyl)pentanoic acid]
2.2	Cc1c(N2CCCCC2)nc2ccc(Br)cc2c1C(=O)NCC(CCC(=O)O)c1c(Cl)ccc(F)c1F (racemic) [Example 144, (+/−)-5-({[6-Bromo-3-methyl-2-(piperidin-1-yl)quinolin-4-yl]carbonyl}amino)-4-(6-chloro-2,3-difluorophenyl)pentanoic acid]
8	Cc1ccc(F)cc1C(CCC(=O)O)CNC(=O)c1c(C)c(N2CCCCC2)nc2ccc(Br)cc12 (racemic) [Example 147, (+/−)-5-({[6-Bromo-3-methyl-2-(piperidin-1-yl)quinolin-4-yl]carbonyl}amino)-4-(5-fluoro-2-methylphenyl)pentanoic acid]
22	Cc1ccc(F)cc1C(CCC(=O)O)CNC(=O)c1c(C)c(N2CCCC(F)(F)C2)nc2ccc(Br)cc12 (racemic) [Example 150, (+/−)-5-({[6-Bromo-2-(3,3-difluoropiperidin-1-yl)-3-methylquinolin-4-yl]carbonyl}amino)-4-(5-fluoro-2-methylphenyl)pentanoic acid]
3.4	Cc1c(N2CCCC2)nc2ccc(Br)cc2c1C(=O)NCC(CCC(=O)O)c1c(F)ccc(F)c1Cl (racemic) [Example 154, (+/−)-5-({[6-Bromo-3-methyl-2-(pyrrolidin-1-yl)quinolin-4-yl]carbonyl}amino)-4-(2-chloro-3,6-difluorophenyl)pentanoic acid]
3	Cc1c(N2CCCC(F)(F)C2)nc2ccc(Br)cc2c1C(=O)NCC(CCC(=O)O)c1c(F)ccc(F)c1Cl (racemic) [Example 155, (+/−)-5-({[6-Bromo-2-(3,3-difluoropiperidin-1-yl)-3-methylquinolin-4-yl]carbonyl}amino)-4-(2-chloro-3,6-difluorophenyl)pentanoic acid]
5.3	Cc1c(N2CCCCC2)nc2ccc(Br)cc2c1C(=O)NCC(CCC(=O)O)c1c(F)cccc1C(F)(F)F (racemic) [Example 160, (+/−)-5-({[6-Bromo-3-methyl-2-(piperidin-1-yl)quinolin-4-yl]carbonyl}amino)-4-[2-fluoro-6-(trifluoromethyl)phenyl]pentanoic acid]
11	Cc1c(N2CCCC2)nc2ccc(Br)cc2c1C(=O)NCC(CCC(=O)O)c1c(F)cccc1C(F)(F)F (racemic) [Example 163, (+/−)-5-({[6-Bromo-3-methyl-2-(pyrrolidin-1-yl)quinolin-4-yl]carbonyl}amino)-4-[2-fluoro-6-(trifluoromethyl)phenyl]pentanoic acid]
9.5	Cc1c(N2CCCC(F)(F)C2)nc2ccc(Br)cc2c1C(=O)NCC(CCC(=O)O)c1c(F)cccc1C(F)(F)F (racemic) [Example 166, (+/−)-5-({[6-Bromo-2-(3,3-difluoropiperidin-1-yl)-3-methylquinolin-4-yl]carbonyl}amino)-4-[2-fluoro-6-(trifluoromethyl)phenyl]pentanoic acid]
9.4	Cc1c(N2CCCCC2)nc2ccc(Br)cc2c1C(=O)NCC(CCC(=O)O)c1c(Cl)ccc(Cl)c1Cl (racemic) [Example 171, (+/−)-5-({[6-Bromo-3-methyl-2-(piperidin-1-yl)quinolin-4-yl]carbonyl}amino)-4-(2,3,6-trichlorophenyl)pentanoic acid]
11	Cc1c(N2CCCC2)nc2ccc(Br)cc2c1C(=O)NCC(CCC(=O)O)c1c(Cl)ccc(Cl)c1Cl (racemic) [Example 174, (+/−)-5-({[6-Bromo-3-methyl-2-(pyrrolidin-1-yl)quinolin-4-yl]carbonyl}amino)-4-(2,3,6-trichlorophenyl)pentanoic acid]
10	Cc1c(N2CCCC(F)(F)C2)nc2ccc(Br)cc2c1C(=O)NCC(CCC(=O)O)c1c(Cl)ccc(Cl)c1Cl (racemic) [Example 177, (+/−)-5-({[6-Bromo-2-(3,3-difluoropiperidin-1-yl)-3-methylquinolin-4-yl]carbonyl}amino)-4-(2,3,6-trichlorophenyl)pentanoic acid]
2.9	Cc1c(N2CCCCC2)nc2ccc(Br)cc2c1C(=O)NCC(CCC(=O)O)c1c(F)cccc1OC(F)F (racemic) [Example 182, (+/−)-5-({[6-Bromo-3-methyl-2-(piperidin-1-yl)quinolin-4-yl]carbonyl}amino)-4-[2-(difluoromethoxy)-6-fluorophenyl]pentanoic acid]
3.2	CCC1CCCN(c2nc3ccc(Br)cc3c(C(=O)NCC(CCC(=O)O)c3cc(F)ccc3F)c2C)C1 (racemic) [Example 225, 5-[({6-Bromo-2-[3-ethylpiperidin-1-yl]-3-methylquinolin-4-yl}carbonyl)amino]-4-(2,5-difluorophenyl)pentanoic acid]
1.8	CCC1CCCN(c2nc3ccc(Br)cc3c(C(=O)NCC(CCC(=O)O)c3cc(F)ccc3F)c2C)C1 (racemic) [Example 226, (−)-5-[({6-Bromo-2-[3-ethylpiperidin-1-yl]-3-methylquinolin-4-yl}carbonyl)amino]-4-(2,5-difluorophenyl)pentanoic acid]
13	Cc1ccccc1C(CCC(=O)O)CNC(=O)c1c(C)c(N2CCCC(F)(F)C2)nc2ccc(Br)cc12 (racemic) [Example 229, (+/−)-5-({[6-Bromo-2-(3,3-difluoropiperidin-1-yl)-3-methylquinolin-4-yl]carbonyl}amino)-4-(2-methylphenyl)pentanoic acid]
18	Cc1ccccc1C(CCC(=O)O)CNC(=O)c1c(C)c(N2CCCC2)nc2ccc(Br)cc12 (racemic) [Example 232, (+/−)-5-({[6-Bromo-3-methyl-2-(pyrrolidin-1-yl)quinolin-4-yl]carbonyl}amino)-4-(2-methylphenyl)pentanoic acid]
12	Cc1c(N2CCCCC2)nc2ccc(Br)cc2c1C(=O)NCC(CCC(=O)O)c1c(Cl)cccc1Cl (racemic) [Example 241, (+/−)-5-({[6-Bromo-3-methyl-2-(piperidin-1-yl)quinolin-4-yl]carbonyl}amino)-4-(2,6-dichlorophenyl)pentanoic acid]
7.1	Cc1ccccc1C(CCC(=O)O)CNC(=O)c1c(C)c(N2CCCCC2)nc2ccc(Br)cc12 (racemic) [Example 242, (+/−)-5-({[6-Bromo-3-methyl-2-(piperidin-1-yl)quinolin-4-yl]carbonyl}amino)-4-(2-methylphenyl)pentanoic acid]
11	Cc1ccccc1C(CCC(=O)O)CNC(=O)c1c(C)c(N2CCCCCC2)nc2ccc(Br)cc12 (racemic) [Example 243, (+/−)-5-({[2-(Azepan-1-yl)-6-bromo-3-methylquinolin-4-yl]carbonyl}amino)-4-(2-methylphenyl)pentanoic acid]
12	Cc1c(N2CCCCC2)nc2ccc(Br)cc2c1C(=O)NCC(CCC(=O)O)c1c(F)cccc1F (racemic) [Example 244, (+/−)-5-({[6-Bromo-3-methyl-2-(piperidin-1-yl)quinolin-4-yl]carbonyl}amino)-4-(2,6-difluorophenyl)pentanoic acid]
55	Cc1c(N2CCCC2)nc2ccc(Br)cc2c1C(=O)NCC(CCC(=O)O)c1c(F)cccc1F (racemic) [Example 247, (+/−)-5-({[6-Bromo-3-methyl-2-(pyrrolidin-1-yl)quinolin-4-yl]carbonyl}amino)-4-(2,6-difluorophenyl)pentanoic acid hydrogenformate]
20	Cc1c(N2CCCC(F)(F)C2)nc2ccc(Br)cc2c1C(=O)NCC(CCC(=O)O)c1c(F)cccc1F (racemic) [Example 250, (+/−)-5-({[6-Bromo-2-(3,3-difluoropiperidin-1-yl)-3-methylquinolin-4-yl]carbonyl}amino)-4-(2,6-difluorophenyl)pentanoic acid]
20	Cc1c(N2CCCCC2)nc2ccc(Br)cc2c1C(=O)NCC(CCC(=O)O)c1cc(F)ccc1F (racemic) [Example 255, (+/−)-5-({[6-Bromo-3-methyl-2-(piperidin-1-yl)quinolin-4-yl]carbonyl}amino)-4-(2,5-difluorophenyl)pentanoic acid]
80	Cc1c(N2CCCC2)nc2ccc(Br)cc2c1C(=O)NCC(CCC(=O)O)c1cc(F)ccc1F (racemic) [Example 258, (+/−)-5-({[6-Bromo-3-methyl-2-(pyrrolidin-1-yl)quinolin-4-yl]carbonyl}amino)-4-(2,5-difluorophenyl)pentanoic acid]
